Test results as given in US4252984A, “Phenol ethers” (Synthelabo, priority 1975, dated 1981).
Where two headings read alike, the source gives them in different places. Values belong to the compound of their own block, whether it stands above or below them.

Tests used:
in vivo = conditions: mouse, mortality over 5 days, confidence limits: 95%
Method: Acute toxicity: The acute toxicity for oral and intravenous administration was evaluated for CD1 male mice of average weight 20 g. The mortality was recorded over a period of 5 days following the administration of the compounds.

β1 -adrenergic receptors = target: T1, β1 -adrenergic receptors (Rattus norvegicus, UniProt P18090); assay: Studies on isolated organs: antagonism of isoprenaline-induced tachycardia and increase in contractile force in isolated rat auricles (pA2); parameters: species or system rats; conditions: for Effect on inotropism, ratio of activity to that of metoprolol: isoprenaline contractile force; for Effect on inotropism, ratio of activity to that of metoprolol / Effect on chronotropism, ratio of activity to that of metoprolol: metoprolol = 1.0; for Kb / pA2, effect on chronotropism / pA2, effect on inotropism: 31° C.
T1 construct: from tissue; host or cells: isolated rat auricles (atria)

[1] = intravenous administration, read-out: LD50 intravenous administration
[2] = oral administration, read-out: LD50 oral administration
[3] = isoprenaline increase in contractile force, read-out: pA2, effect on inotropism (converted)
[4] = isoprenaline tachycardia, read-out: pA2, effect on chronotropism (converted)
[5] = isoprenaline increase in contractile force

T1 sequence (P18090 whole entry): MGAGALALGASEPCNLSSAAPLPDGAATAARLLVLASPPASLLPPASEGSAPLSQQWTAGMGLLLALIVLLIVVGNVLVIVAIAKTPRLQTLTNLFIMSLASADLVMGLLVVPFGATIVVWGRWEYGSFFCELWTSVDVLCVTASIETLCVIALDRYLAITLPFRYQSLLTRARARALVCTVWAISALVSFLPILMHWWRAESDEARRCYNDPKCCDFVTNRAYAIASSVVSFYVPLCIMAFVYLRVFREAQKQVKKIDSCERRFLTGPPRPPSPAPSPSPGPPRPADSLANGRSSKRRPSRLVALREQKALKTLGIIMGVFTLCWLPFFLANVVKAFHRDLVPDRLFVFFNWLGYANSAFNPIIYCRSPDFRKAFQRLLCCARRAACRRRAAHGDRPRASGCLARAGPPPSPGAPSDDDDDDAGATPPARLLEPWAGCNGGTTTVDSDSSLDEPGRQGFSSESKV

Structure (SMILES): COCCc1ccc(OCC(O)CNC(C)C)cc1 (stereo not shown) [METOPROLOL, 1-[4-(2-methoxy-ethyl)-phenoxy]-3-isopropylamino-propan-2-ol, reference compound]
LD50 at 120 h (in vivo; [1]): 62 mg/kg | LD50 at 120 h (in vivo; [2]): 1050 mg/kg

Structure (SMILES): CC(C)NCC(O)COc1ccc(CCOCC2CC2)cc1 (stereo not shown) [SL D.212, 1-{4-[2-(Cyclopropylmethoxy)ethyl]-phenoxy}-3-isopropylamino-propan-2-ol]
LD50 at 120 h (in vivo; [1]): 37 mg/kg | LD50 at 120 h (in vivo; [2]): 944 mg/kg

Structure (SMILES): CC(C)NCC(O)COc1ccc(OCCS(=O)(=O)CC2CC2)cc1 (stereo not shown) [SL E.155, 1-[4-(2-Cyclopropylmethylsulphonyl-ethoxy)phenoxy]-3-isopropylamino-propan-2-ol]
Effect on inotropism, ratio of activity to that of metoprolol (β1 -adrenergic receptors): 0.08 | Kb (β1 -adrenergic receptors; [3]): 141 nM | Kb (β1 -adrenergic receptors; [4]): 162 nM | Effect on chronotropism, ratio of activity to that of metoprolol (β1 -adrenergic receptors; isoprenaline tachycardia): 0.1

Structure (SMILES): CC(C)NCC(O)COc1ccc(OCCOCC2CC2)cc1 (stereo not shown) [SL D.177, 1-{4-[2-(cyclopropylmethoxy)-ethoxy]-phenoxy}-3-isopropylamino-propan-2-ol]
LD50 at 120 h (in vivo; [1]): 76 mg/kg | LD50 at 120 h (in vivo; [2]): 610 mg/kg | Effect on inotropism, ratio of activity to that of metoprolol (β1 -adrenergic receptors): 1.1 | Kb (β1 -adrenergic receptors; [3]): 10.7 nM | Kb (β1 -adrenergic receptors; [4]): 8.13 nM | Effect on chronotropism, ratio of activity to that of metoprolol (β1 -adrenergic receptors; isoprenaline tachycardia): 2.8

Structure (SMILES): CC(C)NCC(O)COc1ccc(OCCCC2CC2)cc1 (stereo not shown) [SL D.311, 1-(4-Cyclopropylpropoxy-phenoxy)-3-isopropylamino-propan-2-ol]
LD50 at 120 h (in vivo; [1]): 71 mg/kg | Effect on inotropism, ratio of activity to that of metoprolol (β1 -adrenergic receptors): 0.2 | Kb (β1 -adrenergic receptors; [3]): 52.5 nM | Kb (β1 -adrenergic receptors; [4]): 91.2 nM | Effect on chronotropism, ratio of activity to that of metoprolol (β1 -adrenergic receptors; isoprenaline tachycardia): 0.2

Structure (SMILES): CC(C)NCC(O)COc1ccc(OCC2CC2)cc1 (stereo not shown) [SL D.230, 1-[4-(Cyclopropylmethoxy)-phenoxy]-3-isopropylamino-propan-2-ol]
LD50 at 120 h (in vivo; [1]): 48 mg/kg | LD50 at 120 h (in vivo; [2]): 750 mg/kg | Effect on inotropism, ratio of activity to that of metoprolol (β1 -adrenergic receptors): 2.1 | Kb (β1 -adrenergic receptors; [3]): 5.37 nM | Kb (β1 -adrenergic receptors; [4]): 5.01 nM | Effect on chronotropism, ratio of activity to that of metoprolol (β1 -adrenergic receptors; isoprenaline tachycardia): 4.6

Structure (SMILES): CC(C)NCC(O)COc1ccc(CCOCC2CCCCC2)cc1 (stereo not shown) [SL D.268, 1-{4-[2-(Cyclohexylmethoxy)-ethyl]-phenoxy}-3-isopropylamino-propan-2-ol]
LD50 at 120 h (in vivo; [1]): 35 mg/kg | Effect on inotropism, ratio of activity to that of metoprolol (β1 -adrenergic receptors): 0.03 | Kb (β1 -adrenergic receptors; [3]): 398 nM | pA2, effect on chronotropism (β1 -adrenergic receptors; isoprenaline tachycardia): 6.84 | Effect on chronotropism, ratio of activity to that of metoprolol (β1 -adrenergic receptors; isoprenaline tachycardia): 0.2

Structure (SMILES): CC(C)NCC(O)COc1ccc(OCCSCC2CC2)cc1 (stereo not shown) [SL D.299, 1-[4-(2-Cyclopropylmethylthio-ethoxy)-phenoxy]-3-isopropylamino-propan-2-ol]
Effect on inotropism, ratio of activity to that of metoprolol (β1 -adrenergic receptors): 0.8 | Kb (β1 -adrenergic receptors; [3]): 14.8 nM | Kb (β1 -adrenergic receptors; [4]): 17.4 nM | Effect on chronotropism, ratio of activity to that of metoprolol (β1 -adrenergic receptors; isoprenaline tachycardia): 1.3

Structure (SMILES): CC(C)NCC(O)COc1ccc(COCC2CC2)cc1 (stereo not shown) [SL D.224, 1-[4-(cyclopropylmethoxymethyl)-phenoxy]-3-isopropylamino-propan-2-ol]
LD50 at 120 h (in vivo; [1]): 88 mg/kg | LD50 at 120 h (in vivo; [2]): 1400 mg/kg

Structure (SMILES): CC(C)(C)NCC(O)COc1ccc(OCC2CC2)cc1 (stereo not shown) [SL D.231, 1-[4-(Cyclopropylmethoxy)-phenoxy]-3-t-butylamino-propan-2-ol]
LD50 at 120 h (in vivo; [1]): 36 mg/kg | LD50 at 120 h (in vivo; [2]): 1200 mg/kg | Effect on inotropism, ratio of activity to that of metoprolol (β1 -adrenergic receptors): 0.3 | Kb (β1 -adrenergic receptors; [3]): 33.9 nM | Kb (β1 -adrenergic receptors; [4]): 28.8 nM | Effect on chronotropism, ratio of activity to that of metoprolol (β1 -adrenergic receptors; isoprenaline tachycardia): 0.8

Structure (SMILES): CC(C)NCC(O)COc1ccc(CCOCC2CCCC2)cc1 (stereo not shown) [SL D.291]
LD50 at 120 h (in vivo; [1]): 56 mg/kg | Effect on inotropism, ratio of activity to that of metoprolol (β1 -adrenergic receptors): 0.08 | Kb (β1 -adrenergic receptors; [3]): 148 nM | pA2, effect on chronotropism (β1 -adrenergic receptors; isoprenaline tachycardia): 6.89 | Effect on chronotropism, ratio of activity to that of metoprolol (β1 -adrenergic receptors; isoprenaline tachycardia): 0.2

Structure (SMILES): CC(C)NCC(O)COc1ccc(CCOCC2CCC2)cc1 (stereo not shown) [SL D.254, 1-{4-[2-(Cyclobutylmethoxy)-ethyl]-phenoxy}-3-isopropylamino-propan-2-ol]
LD50 at 120 h (in vivo; [1]): 28 mg/kg | LD50 at 120 h (in vivo; [2]): 658 mg/kg

Structure (SMILES): CC(C)(C)NCC(O)COc1ccc(OCCOCC2CC2)cc1 (stereo not shown) [SL D.178, 1-{4-[2-(Cyclopropylmethoxy)-ethoxy]-phenoxy}-3-t-butylamino-propan-2-ol]
LD50 at 120 h (in vivo; [1]): 53 mg/kg | LD50 at 120 h (in vivo; [2]): 445 mg/kg | Effect on inotropism, ratio of activity to that of metoprolol (β1 -adrenergic receptors): 1.0 | Kb (β1 -adrenergic receptors; [3]): 11 nM | Kb (β1 -adrenergic receptors; [4]): 20 nM | Effect on chronotropism, ratio of activity to that of metoprolol (β1 -adrenergic receptors; isoprenaline tachycardia): 1.4

More lines, now with the values ahead:

Effect on inotropism, ratio of activity to that of metoprolol (β1 -adrenergic receptors): 0.1 | Kb (β1 -adrenergic receptors; [3]): 89.1 nM | pA2, effect on chronotropism (β1 -adrenergic receptors; isoprenaline tachycardia): 7.02 | Effect on chronotropism, ratio of activity to that of metoprolol (β1 -adrenergic receptors; isoprenaline tachycardia): 0.2
Structure (SMILES): CC(C)NCC(O)COc1ccc(CCCOCC2CCC2)cc1 (stereo not shown) [SL E.061]

Effect on inotropism, ratio of activity to that of metoprolol (β1 -adrenergic receptors): 0.02 | Kb (β1 -adrenergic receptors; [3]): 692 nM | pA2, effect on chronotropism (β1 -adrenergic receptors; isoprenaline tachycardia): 5.54
Structure (SMILES): CC(CCc1ccc(F)cc1)NCC(O)COc1ccc(CCOCC2CCC2)cc1 (stereo not shown) [SL E.059]

Effect on inotropism, ratio of activity to that of metoprolol (β1 -adrenergic receptors): 0.09 | Kb (β1 -adrenergic receptors; [3]): 132 nM | pA2, effect on chronotropism (β1 -adrenergic receptors; isoprenaline tachycardia): 7.11 | Effect on chronotropism, ratio of activity to that of metoprolol (β1 -adrenergic receptors; isoprenaline tachycardia): 0.3
Structure (SMILES): CC(C)NCC(O)COc1ccc(CCSCC2CCC2)cc1 (stereo not shown) [SL D.056, 1-[4-(2-Cyclobutylmethylthio-ethyl)-phenoxy]-3-isopropylamino-propan-2-ol]

Effect on inotropism, ratio of activity to that of metoprolol (β1 -adrenergic receptors): 0.2 | pA2, effect on inotropism (β1 -adrenergic receptors; [5]): 7.21 | Kb (β1 -adrenergic receptors; [4]): 37.2 nM | Effect on chronotropism, ratio of activity to that of metoprolol (β1 -adrenergic receptors; isoprenaline tachycardia): 0.6
Structure (SMILES): CC(=O)NCCNCC(O)COc1ccc(CCOCC2CCC2)cc1 (stereo not shown) [SL E.025, 1-[4-(2-Cyclobutylmethoxy-ethyl)-phenoxy]-3-(2-acetylamino-ethylamino)-propan-2-ol]

Effect on inotropism, ratio of activity to that of metoprolol (β1 -adrenergic receptors): 2.2 | Kb (β1 -adrenergic receptors; [3]): 5.13 nM | Kb (β1 -adrenergic receptors; [4]): 5.62 nM | Effect on chronotropism, ratio of activity to that of metoprolol (β1 -adrenergic receptors; isoprenaline tachycardia): 4.1
Structure (SMILES): CC(C)NCC(O)COc1ccc(OCCOCC2CCC2)cc1 (stereo not shown) [SL E.096, 1-[4-(2-cyclobutylmethoxyethoxy)-phenoxy]-3-isopropylamino-propan-2-ol]

Effect on inotropism, ratio of activity to that of metoprolol (β1 -adrenergic receptors): 0.1 | Kb (β1 -adrenergic receptors; [3]): 74.1 nM | pA2, effect on chronotropism (β1 -adrenergic receptors; isoprenaline tachycardia): 7.75 | Effect on chronotropism, ratio of activity to that of metoprolol (β1 -adrenergic receptors; isoprenaline tachycardia): 1.3
Structure (SMILES): COc1ccc(CCNCC(O)COc2ccc(CCOCC3CCC3)cc2)cc1OC (stereo not shown) [SL E.111]

Effect on inotropism, ratio of activity to that of metoprolol (β1 -adrenergic receptors): 1.00 | Kb (β1 -adrenergic receptors; [3]): 10.7 nM | Kb (β1 -adrenergic receptors; [4]): 5.5 nM | Effect on chronotropism, ratio of activity to that of metoprolol (β1 -adrenergic receptors; isoprenaline tachycardia): 4.17
Structure (SMILES): CC(C)NCC(O)COc1ccc(OCCOCC2CCCC2)cc1 (stereo not shown) [SL E.203]

Effect on inotropism, ratio of activity to that of metoprolol (β1 -adrenergic receptors): 0.01 | Kb (β1 -adrenergic receptors; [3]): 1230 nM | pA2, effect on chronotropism (β1 -adrenergic receptors; isoprenaline tachycardia): 5.11
Structure (SMILES): CC(CCc1ccccc1)NCC(O)COc1ccc(CCOCC2CCC2)cc1 (stereo not shown) [SL E.049]

Effect on inotropism, ratio of activity to that of metoprolol (β1 -adrenergic receptors): 1.0 | pA2, effect on inotropism (β1 -adrenergic receptors; [5]): 7.94 | Kb (β1 -adrenergic receptors; [4]): 11.7 nM | Effect on chronotropism, ratio of activity to that of metoprolol (β1 -adrenergic receptors; isoprenaline tachycardia): 1.9
Structure (SMILES): CC(C)NCC(O)COc1ccc(CCS(=O)(=O)CC2CCC2)cc1 (stereo not shown) [SL E.060, 1-[4-(2-Cyclobutylmethylsulphonyl-ethyl)phenoxy]-3-isopropylamino-propan-2-ol]

Effect on inotropism, ratio of activity to that of metoprolol (β1 -adrenergic receptors): 0.02 | Kb (β1 -adrenergic receptors; [3]): 617 nM | pA2, effect on chronotropism (β1 -adrenergic receptors; isoprenaline tachycardia): 6.47 | Effect on chronotropism, ratio of activity to that of metoprolol (β1 -adrenergic receptors; isoprenaline tachycardia): 0.07
Structure (SMILES): CC(CC#N)NCC(O)COc1ccc(CCOCC2CCC2)cc1 (stereo not shown) [SL E.024, 1-[4-(2-Cyclobutylmethoxy-ethyl)-phenoxy]-3-(1-methyl-2-cyano-ethylamino)-propan-2-ol]

Effect on inotropism, ratio of activity to that of metoprolol (β1 -adrenergic receptors): 0.4 | Kb (β1 -adrenergic receptors; [3]): 30.2 nM | pA2, effect on chronotropism (β1 -adrenergic receptors; isoprenaline tachycardia): 7.44 | Effect on chronotropism, ratio of activity to that of metoprolol (β1 -adrenergic receptors; isoprenaline tachycardia): 0.6
Structure (SMILES): CC(C)NCC(O)COc1ccc(COCC2CCC2)cc1 (stereo not shown) [SL E.080]
